Assay: xn = mol fraction of the nth substance listed

COCCOCCO + CCOC(C)(C)C
viscosity [mPa·s], 101 kPa
Conditions | 293.15 K | 298.15 K | 303.15 K
x2 = 0.0501 | 3.519 | 3.231 | 2.865
x2 = 0.1 | 3.158 | 2.906 | 2.589
x2 = 0.1459 | 2.847 | 2.627 | 2.351
x2 = 0.1998 | 2.518 | 2.328 | 2.097
x2 = 0.2556 | 2.218 | 2.06 | 1.862
x2 = 0.3031 | 1.991 | 1.855 | 1.683
x2 = 0.3521 | 1.784 | 1.669 | 1.52
x2 = 0.4004 | 1.605 | 1.506 | 1.377
x2 = 0.4511 | 1.438 | 1.355 | 1.244
x2 = 0.4998 | 1.299 | 1.227 | 1.13
x2 = 0.5628 | 1.142 | 1.082 | 1.001
x2 = 0.5997 | 1.062 | 1.007 | 0.934
x2 = 0.6621 | 0.942 | 0.894 | 0.833
x2 = 0.6997 | 0.879 | 0.834 | 0.779
x2 = 0.7411 | 0.816 | 0.773 | 0.725
x2 = 0.7995 | 0.736 | 0.697 | 0.657
x2 = 0.8401 | 0.687 | 0.651 | 0.616
x2 = 0.8998 | 0.623 | 0.591 | 0.56
x2 = 0.9498 | 0.575 | 0.545 | 0.518

CCC#N + CCOC(C)=O
303.15 K, 101.33 kPa
Conditions | viscosity [mPa·s]
x1 = 0.1019 | 0.4034
x1 = 0.1916 | 0.4041
x1 = 0.2921 | 0.4038
x1 = 0.3979 | 0.4025
x1 = 0.4953 | 0.4012
x1 = 0.5954 | 0.3976
x1 = 0.6959 | 0.3954
x1 = 0.7981 | 0.3935
x1 = 0.9006 | 0.3915

CCCCCCCCCCO + CCOC(C)=O
viscosity [mPa·s], 101.33 kPa
Conditions | x2 = 0.1664 | x2 = 0.3099 | x2 = 0.4348 | x2 = 0.545 | x2 = 0.6423 | x2 = 0.7293 | x2 = 0.8073 | x2 = 0.8778 | x2 = 0.9418
298.15 K | 6.2 | 3.758 | 2.442 | 1.698 | 1.238 | 0.936 | 0.809 | 0.657 | 0.521
303.15 K | 5.263 | 3.279 | 2.171 | 1.533 | 1.235 | 0.864 | 0.719 | 0.613 | 0.497
308.15 K | 4.52 | 2.876 | 1.935 | 1.384 | 1.032 | 0.796 | 0.647 | 0.583 | 0.477

Cc1ccccc1C + CCOC(C)=O
Conditions | viscosity [mPa·s]
298.15 K, 101 kPa, x2 = 0.0459 | 0.74
298.15 K, 101 kPa, x2 = 0.1515 | 0.698
298.15 K, 101 kPa, x2 = 0.2504 | 0.661
298.15 K, 101 kPa, x2 = 0.349 | 0.625
298.15 K, 101 kPa, x2 = 0.4636 | 0.586
298.15 K, 101 kPa, x2 = 0.4948 | 0.576
298.15 K, 101 kPa, x2 = 0.5519 | 0.557
298.15 K, 101 kPa, x2 = 0.6488 | 0.527
298.15 K, 101 kPa, x2 = 0.7509 | 0.496
298.15 K, 101 kPa, x2 = 0.8487 | 0.468
298.15 K, 101 kPa, x2 = 0.9146 | 0.45
303.15 K, 101.32 kPa, x2 = 0.0599 | 0.679
303.15 K, 101.32 kPa, x2 = 0.1789 | 0.638
303.15 K, 101.32 kPa, x2 = 0.2918 | 0.601
303.15 K, 101.32 kPa, x2 = 0.4303 | 0.557
303.15 K, 101.32 kPa, x2 = 0.4994 | 0.535
303.15 K, 101.32 kPa, x2 = 0.5537 | 0.52
303.15 K, 101.32 kPa, x2 = 0.6001 | 0.507
303.15 K, 101.32 kPa, x2 = 0.6951 | 0.483
303.15 K, 101.32 kPa, x2 = 0.7859 | 0.457
303.15 K, 101.32 kPa, x2 = 0.873 | 0.437
303.15 K, 101.32 kPa, x2 = 0.9583 | 0.414
308.15 K, 101 kPa, x2 = 0.0459 | 0.643
308.15 K, 101 kPa, x2 = 0.1515 | 0.61
308.15 K, 101 kPa, x2 = 0.2504 | 0.579
308.15 K, 101 kPa, x2 = 0.349 | 0.551
308.15 K, 101 kPa, x2 = 0.4636 | 0.518
308.15 K, 101 kPa, x2 = 0.4948 | 0.51
308.15 K, 101 kPa, x2 = 0.5519 | 0.495
308.15 K, 101 kPa, x2 = 0.6488 | 0.47
308.15 K, 101 kPa, x2 = 0.7509 | 0.444
308.15 K, 101 kPa, x2 = 0.8487 | 0.421
308.15 K, 101 kPa, x2 = 0.9146 | 0.406
313.15 K, 101.32 kPa, x2 = 0.2056 | 0.565
313.15 K, 101.32 kPa, x2 = 0.4079 | 0.508
313.15 K, 101.32 kPa, x2 = 0.5023 | 0.483
313.15 K, 101.32 kPa, x2 = 0.5988 | 0.459
313.15 K, 101.32 kPa, x2 = 0.8018 | 0.411

OCCOCCOCCO + CCOC(C)=O
101 kPa
Conditions | viscosity [mPa·s]
298.15 K, x2 = 0.1482 | 22.05
308.15 K, x2 = 0.0466 | 18.65

Cl[Si](Cl)(Cl)Cl + CCOC(C)OCC
viscosity [mPa·s], 101 kPa
Conditions | 303.1 K | 313.1 K
x2 = 0.13 | 0.45 | 0.41
x2 = 0.2026 | 0.45 | 0.413
x2 = 0.3244 | 0.459 | 0.421
x2 = 0.4102 | 0.475 | 0.427
x2 = 0.4927 | 0.492 | 0.442
x2 = 0.5909 | 0.515 | 0.461
x2 = 0.6377 | 0.534 | 0.476
x2 = 0.6703 | 0.538 | 0.484
x2 = 0.71 | 0.552 | 0.49
x2 = 0.7457 | 0.541 | 0.481
x2 = 0.8082 | 0.52 | 0.467
x2 = 0.8385 | 0.492 | 0.447
x2 = 0.8813 | 0.456 | 0.41
x2 = 0.9655 | 0.416 | 0.375

c1ccc(Oc2ccccc2)cc1 + CCOCC
298.15 K, 101 kPa
Conditions | viscosity [mPa·s]
x2 = 0.0704 | 3.158
x2 = 0.1318 | 2.737
x2 = 0.2193 | 2.153
x2 = 0.3297 | 1.631
x2 = 0.4245 | 1.258
x2 = 0.5102 | 0.9926
x2 = 0.6076 | 0.7614
x2 = 0.7088 | 0.5733
x2 = 0.7826 | 0.4552
x2 = 0.9092 | 0.3106

c1ccc(Oc2ccccc2)cc1 + CCOc1ccccc1
298.15 K, 101 kPa
Conditions | viscosity [mPa·s]
x2 = 0.1367 | 3.264
x2 = 0.2072 | 3.003
x2 = 0.3253 | 2.63
x2 = 0.3731 | 2.455
x2 = 0.5105 | 2.096
x2 = 0.6002 | 1.862
x2 = 0.7037 | 1.632
x2 = 0.8127 | 1.451
x2 = 0.9006 | 1.309

OCCN(CCO)CCO + CN1CCCC1=O
viscosity [mPa·s], 101 kPa
Conditions | x2 = 0.0728 | x2 = 0.1508 | x2 = 0.2354 | x2 = 0.3199 | x2 = 0.4141 | x2 = 0.5135 | x2 = 0.6225 | x2 = 0.7384 | x2 = 0.863
293.15 K | 572.9 | 337.4 | 162.4 | 84.29 | 43.36 | 22.93 | 11.2 | 6.152 | 3.354
303.15 K | 255.2 | 159.4 | 84.21 | 47.61 | 27.51 | 14.93 | 8.012 | 4.62 | 2.747
313.15 K | 123.8 | 77.19 | 47.61 | 28.9 | 16.82 | 10.34 | 5.907 | 3.554 | 1.892
323.15 K | 56.97 | 40.67 | 29.54 | 18.75 | 11.33 | 7.604 | 4.552 | 2.766 | 1.497

CCC#N + CN(C)C=O
303.15 K, 101.33 kPa
Conditions | viscosity [mPa·s]
x1 = 0.1013 | 0.6977
x1 = 0.1952 | 0.6428
x1 = 0.3003 | 0.5983
x1 = 0.4007 | 0.5648
x1 = 0.4949 | 0.5385
x1 = 0.5976 | 0.5113
x1 = 0.6964 | 0.4839
x1 = 0.7945 | 0.4533
x1 = 0.9 | 0.4186

NC(N)=O + CN(C)C=O
101 kPa
Conditions | viscosity [mPa·s]
293.15 K, x1 = 0.00259 | 0.8641
293.15 K, x1 = 0.004089 | 0.8696
293.15 K, x1 = 0.005542 | 0.8749
293.15 K, x1 = 0.007625 | 0.8829
293.15 K, x1 = 0.008542 | 0.8861
293.15 K, x1 = 0.009703 | 0.8909
293.15 K, x1 = 0.01132 | 0.8964
293.15 K, x1 = 0.01367 | 0.906
298.15 K, x1 = 0.002771 | 0.8095
298.15 K, x1 = 0.00599 | 0.8163
298.15 K, x1 = 0.0088 | 0.8219
298.15 K, x1 = 0.01098 | 0.8295
298.15 K, x1 = 0.01142 | 0.8371
298.15 K, x1 = 0.01232 | 0.8421
298.15 K, x1 = 0.01349 | 0.8468
298.15 K, x1 = 0.0148 | 0.8557
303.15 K, x1 = 0.001637 | 0.7596
303.15 K, x1 = 0.003093 | 0.7641
303.15 K, x1 = 0.004755 | 0.7693
303.15 K, x1 = 0.005964 | 0.7728
303.15 K, x1 = 0.007418 | 0.7775
303.15 K, x1 = 0.008306 | 0.7799
303.15 K, x1 = 0.01015 | 0.7857
303.15 K, x1 = 0.01168 | 0.7908
308.15 K, x1 = 0.001989 | 0.7171
308.15 K, x1 = 0.003566 | 0.7214
308.15 K, x1 = 0.005107 | 0.7257
308.15 K, x1 = 0.006768 | 0.73
308.15 K, x1 = 0.008236 | 0.7345
308.15 K, x1 = 0.009277 | 0.7372
308.15 K, x1 = 0.01039 | 0.7403
308.15 K, x1 = 0.01098 | 0.7421

NC(N)=O + CO
viscosity [mPa·s], 101 kPa
Conditions | 293.15 K | 298.15 K | 303.15 K | 308.15 K | 313.15 K | 318.15 K | 323.15 K
x1 = 0.08238 | 0.924 | 0.849 | 0.781 | 0.721 | 0.668 | 0.62 | 0.576
x1 = 0.09642 | – | 0.9735 | 0.8914 | 0.8215 | 0.7546 | 0.6953 | –
x1 = 0.1034 | 1.031 | 0.942 | 0.864 | 0.794 | 0.732 | 0.677 | 0.627
x1 = 0.1289 | 1.164 | 1.064 | 0.975 | 0.896 | 0.826 | 0.764 | 0.707
x1 = 0.138 | – | 1.222 | 1.111 | 1.019 | 0.9311 | 0.8588 | –
